In this assay the target is T1, recombinant human Meningioma Expressed Antigen 5 (MGEA5), also referred to as O-GlcNAcase (OGA) (Homo sapiens, UniProt O60502).
T1 construct: Full length OGA enzyme was purchased at OriGene (cat #TP322411); purchased OriGene TP322411
T1 sequence (O60502 1-916): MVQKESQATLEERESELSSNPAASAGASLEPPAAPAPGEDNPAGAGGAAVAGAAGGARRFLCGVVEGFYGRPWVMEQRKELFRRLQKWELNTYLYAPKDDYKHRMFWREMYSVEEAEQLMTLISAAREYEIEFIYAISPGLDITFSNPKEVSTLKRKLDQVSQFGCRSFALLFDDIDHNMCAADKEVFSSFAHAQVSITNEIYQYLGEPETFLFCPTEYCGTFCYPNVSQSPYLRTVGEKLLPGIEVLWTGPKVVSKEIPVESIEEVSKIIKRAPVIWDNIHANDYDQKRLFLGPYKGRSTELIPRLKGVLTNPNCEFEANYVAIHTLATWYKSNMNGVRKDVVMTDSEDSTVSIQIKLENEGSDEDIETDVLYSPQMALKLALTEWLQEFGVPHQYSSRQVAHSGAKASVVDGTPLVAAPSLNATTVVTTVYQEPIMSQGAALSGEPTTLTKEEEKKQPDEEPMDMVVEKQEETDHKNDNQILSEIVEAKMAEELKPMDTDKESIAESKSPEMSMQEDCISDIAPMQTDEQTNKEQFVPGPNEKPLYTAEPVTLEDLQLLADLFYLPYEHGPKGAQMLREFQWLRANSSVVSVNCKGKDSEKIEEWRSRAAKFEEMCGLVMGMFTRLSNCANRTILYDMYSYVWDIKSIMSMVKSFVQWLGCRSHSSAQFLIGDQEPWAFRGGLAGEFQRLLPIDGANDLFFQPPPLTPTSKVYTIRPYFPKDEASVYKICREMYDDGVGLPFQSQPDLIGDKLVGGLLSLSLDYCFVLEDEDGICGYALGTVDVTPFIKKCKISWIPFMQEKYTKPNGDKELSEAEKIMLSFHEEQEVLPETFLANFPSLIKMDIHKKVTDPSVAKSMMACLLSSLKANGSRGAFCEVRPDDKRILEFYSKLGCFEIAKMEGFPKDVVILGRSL
The assay is described as follows: OGA biochemical assay (inhibition of FM-GlcNAc hydrolysis, fluorescence). Conditions: FM-GlcNAc substrate. The procedure, abridged:
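Full-length OGA (2 nM) pre-incubated 60 min at room temperature with compound, then FM-GlcNAc (100 uM final) hydrolysed 6 h at room temperature in 200 mM citrate/phosphate pH 7.2 with 0.005% Tween-20. Stopped with carbonate pH 11.0; fluorescein read at ex 485/em 538 nm. IC50 and Hill coefficient from curve fit between no-inhibitor and saturating-standard controls.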

As for `Cc1cc(C2CCCN(C(C)c3ccc4sc(C)nc4n3)C2)cc(C)n1` (racemic) [Compound 39], the IC50 (6 h at room temperature, read-out: Enzymatic hOGA, pIC50 (converted)) was 12.6 nM. The maximum response (Emax) (commonly the maximal effect, on the per cent scale that the assay sets) (maximal effect, read-out: Enzymatic Emax (%)) was 99%.

For the origin of these results see patent US20210115040A1, “OGA INHIBITOR COMPOUNDS” (Janssen Pharmaceutica NV, priority 2018, published 2021).
